# Laboratory results as given in patent US20090105245A1, “METHODS FOR TREATING MACULAR EDEMA AND OCULAR ANGIOGENESIS USING AN ANTI-INFLAMMATORY AGENT AND A RECEPTOR TYROSINE KINASE INHIBITOR” (priority 2006, published 2009).
# Legend:
# Format in all cases: in vivo
# [1] = tested on: preretinal neovascularization (NV) in the rat OIR model; assay: Rat OIR model, oral gavage
# Procedure: Immediately following euthanasia, retinas from all rat pups were harvested, fixed in 10% neutral buffered formalin for 24 hours, subjected to ADPase staining, and fixed onto slides as whole mounts. Digital images were acquired from each retinal flat mount that was adequately prepared. Computerized image analysis was used to obtain a NV clockhour score from each readable sample. Each clockhour out of 12 total per retina was assessed for the presence or absence of preretinal NV. Statistical comparisons using median scores for NV clockhours from each treatment group were utilized in nonparametric analyses. Each noninjected pup represented one NV score by taking the average value of both eyes and was used in comparisons against each dosage group. Because the pups were randomly assigned and no difference was observed between oxygen-exposed control pups from all litters, the NV scores were combined for all treatment groups. P≦0.05 was considered statistically significant.
# METHODS: Pregnant Sprague-Dawley rats were received at 14 days gestation and subsequently gave birth on Day 22±1 of gestation. Immediately following parturition, pups were pooled and randomized into separate litters (n=17 pups/litter), placed into separate shoebox cages inside oxygen delivery chamber, and subjected to an oxygen-exposure profile from Day 0 to Day 14 postpartum. Litters were then placed into room air from Day 14/0 through Day 14/6 (days 14-20 postpartum). Additionally on Day 14/0, each pup was randomly assigned as oxygen-exposed controls, vehicle treated, or drug-treated at 1.5, 5, 10 mg/kg, p.o., BID. At Day 14/6 (20 days postpartum), all animals in both studies were euthanized and retina whole mounts were prepared as described in Example 1 above.
# [2] = tested on: laser-induced choroidal neovascularization (CNV) in the mouse; assay: Mouse laser-induced CNV, prevention paradigm, oral gavage; settings: for inhibition of CNV: oral, prevention paradigm
# [3] = tested on: diabetes-induced retinal vascular permeability; assay: STZ diabetic rat retinal vascular permeability (Evan's blue albumin permeation), oral gavage
# Procedure: METHODS: Diabetes was induced in male Long-Evans rats with 65 mg/kg streptozotocin (STZ) after an overnight fast. Upon confirmation of diabetes (blood glucose >250 mg/dl), treatment was initiated by oral gavage. Non-diabetic (NDM) and diabetic (DM) rats received oral gavage of either vehicle or RTK inhibitor at 1.5 or 5 mg/kg/d BID. After 2 weeks, jugular vein catheters were implanted 1 day prior to experimentation for the infusion of indicator dye. Retinal vascular permeability, RVP, was measured using Evan's blue albumin permeation (45 mg/kg) after a 2 hour circulation period.
# [4] = tested on: existing laser-induced choroidal neovascularization (CNV) in the mouse; assay: Mouse laser-induced CNV, regression of existing CNV, intravitreal injection at 7 days post-laser; settings: single intravitreal injection, mouse (FIG. 4)
# Procedure: Methods. CNV was generated by laser-induced rupture of Bruch's membrane. Briefly, 4 to 5 week old male C57BL/6J mice were anesthetized using intraperitoneal administration of ketamine hydrochloride (100 mg/kg) and xylazine (5 mg/kg) and the pupils of both eyes dilated with topical ocular instillation of 1% tropicamide and 2.5% Mydfin®. One drop of topical cellulose (Gonioscopic®) was used to lubricate the cornea. A hand-held cover slip was applied to the cornea and used as a contact lens to aid visualization of the fundus. Three to four retinal burns were placed in randomly assigned eye (right or left eye for each mouse) using the Alcon 532 nm EyeLite laser with a slit lamp delivery system. The laser burns were used to generate a rupture in Bruch's membrane, which was indicated opthalmoscopically by the formation of a bubble under the retina. Only mice with laser burns that produced three bubbles per eye were included in the study. Burns were typically placed at the 3, 6, 9 or 12 o'clock positions in the posterior pole of the retina, avoiding the branch retinal arteries and veins. […]
# METHODS: CNV was generated by laser-induced rupture of Bruch's membrane as described above in Example 3. […] Choroidal flat mounts were analyzed as described above in Example 3.
# [5] = tested on: existing laser-induced choroidal neovascularization (CNV) in the mouse; assay: Mouse laser-induced CNV, regression paradigm, oral gavage from day 7; settings: 3 mg/kg/day, oral from day 7
# [6] = tested on: laser-induced choroidal neovascularization (CNV) in the mouse; assay: Mouse laser-induced choroidal neovascularization (CNV), prevention, intravitreal injection
# Procedure: Methods. CNV was generated by laser-induced rupture of Bruch's membrane. Briefly, 4 to 5 week old male C57BL/6J mice were anesthetized using intraperitoneal administration of ketamine hydrochloride (100 mg/kg) and xylazine (5 mg/kg) and the pupils of both eyes dilated with topical ocular instillation of 1% tropicamide and 2.5% Mydfin®. One drop of topical cellulose (Gonioscopic®) was used to lubricate the cornea. A hand-held cover slip was applied to the cornea and used as a contact lens to aid visualization of the fundus. Three to four retinal burns were placed in randomly assigned eye (right or left eye for each mouse) using the Alcon 532 nm EyeLite laser with a slit lamp delivery system. The laser burns were used to generate a rupture in Bruch's membrane, which was indicated opthalmoscopically by the formation of a bubble under the retina. Only mice with laser burns that produced three bubbles per eye were included in the study. Burns were typically placed at the 3, 6, 9 or 12 o'clock positions in the posterior pole of the retina, avoiding the branch retinal arteries and veins.
# Each mouse was randomly assigned into one of the following treatment groups: noninjected controls, sham-injected controls, vehicle-injected mice, or one of three RTKi-injected groups. […]
smiles,measurement,setting,value
"Cc1ccc(F)c(NC(=O)Nc2ccc(-c3cccc4[nH]nc(N)c34)cc2)c1 [Compound 86, N-[4-[3-amino-1H-indazol-4-yl]phenyl]-N′-(2-fluoro-5-methylphenyl)urea]",decrease in NV,[1]; 3 mg/kg/day p.o.,did not have a significant decrease in NV
same,inhibition of preretinal NV vs vehicle-treated pups,[1]; 10 mg/kg/day p.o.,significant inhibition of preretinal NV
same,inhibition of preretinal NV,[1]; 20 mg/kg/day p.o.,complete inhibition of preretinal NV
same,prevention of preretinal neovascularization (NV),"[1]; oral gavage, rat OIR (FIG. 2)",prevents preretinal neoavascularization (NV)
same,inhibition of CNV,[2]; 3 mg/kg/day,no significant inhibition
same,inhibition of CNV,[2]; 20 mg/kg/d,complete inhibition of CNV
same,inhibition of laser-induced CNV,"[2]; oral gavage, mouse (FIG. 6)",inhibits laser-induced choroidal neovascularization (CNV)
same,blood glucose levels and body weights,[3]; DM control vs DM treatment groups,not different between DM control and DM treatment groups
same,"tolerability, systemic or ERG side effects","[3]; oral RTKi, NDM and DM groups",well tolerated by both NDM and DM groups with no observed systemic or ERG side effects
same,regression of existing laser-induced CNV,[4],induces regression of existing laser-induced choroidal neovascularization (CNV)
same,regression of existing CNV,[5],did not show a significant regression of existing CNV
same,CNV vs vehicle injected eyes,"[6]; 0.3% RTKi, 5 ul intravitreal (P=0.082)",marginal statistical difference
same,inhibition of laser-induced CNV,"[6]; single intravitreal injection, mouse (FIG. 3)",inhibits laser-induced choroidal neovascularization (CNV)
